Measurements reported in patent US20210163453A1, “DERIVATIVES OF PAPAVERINE THAT ARE EFFECTIVE HYPOXIC TUMOR RADIOSENSITIZERS” (Ohio State Innovation Foundation, priority 2018, published 2021).
“Also recorded” adds a separate entry of the source.

Columns and labels:
mitochondrial complex 1 = experiment: Seahorse OCR inhibition of PPV derivatives, normalized to PPV; assay type: cell-based; conditions: Seahorse; for Inhibitory activity OCR % of PPV: OCR inhibition at 10 μM concentration, normalized to PPV
Description: FIGS. 7A-7D show OCR and cellular toxicity data. […]. Bars represent mean OCR and PDE10 inhibitory activities from at least 5 (OCR) or 3 (PDE) replicates. All experiments were repeated at least twice. […] Values are mean+−SEM.
(§1) Seahorse analysis of the OCR. Oxygen consumption rate (OCR) was measured using Seahorse XF96 Flux Analyzer (Agilent Technologies). The cells were seeded to attach overnight, wells were washed with pre-warmed XF Calibrant (Agilent Technologies) and the replaced with unbuffered Assay Medium (pH 7.4, 5 mM glucose, 1 mM L-glutamine). The plates were incubated at 37° C. in a CO2-free incubator for 2 hours prior to assay. For succinate rescue assay, cells were permeabilized using XF Plasma Membrane Permeabilizer Reagent (XF PMP, Agilent Technologies) according to the manufacturer's instructions. The OCR rate was measured in 1× Mitochondrial Assay Solution (MAS) (70 mM sucrose, 220 mM mannitol, 10 mM KH2PO4, 5 mM MgCl2, 2 mM Hepes, 0.6% (w/v) fatty acid-free BSA and 1 mM EGTA; pH 7.4). After baseline oxygenation was established, 1 μM rotenone or 10 μM PPV was injected at time A, followed by 5 mM succinate at time B. Error bars represent standard deviation. For the washout experiment, EO771 cells were seeded overnight, then treated with 10 μM PPV or 1 μM rotenone 3 hours prior to OCR measurement. Media was replaced 1 and 2 hours before measurement and OCR reported.
Because PPV's effect on mitochondrial function is independent of cAMP levels it was reasoned that there are two activities in PPV, one inhibiting complex 1 and one inhibiting PDE10A that may reside in different parts of the molecule. The structure activity relationship of PPV relative to two assays was assessed: inhibition of cellular OCR by Seahorse, and inhibition of PDE10A by purified enzyme activity in multiwell plate (PDE10A activity assay kit, BPS Bioscience). Because PPV can compete with rotenone as complex 1 inhibitors, it was reasoned that they may be binding the same site and therefore the structures would be similar relative to the mitochondrial binding target. […] Because the top was a planar structure similar to that of rotenone, and they compete with each other for the same binding pocket on complex 1 (FIG. 10) the lower portion of the molecule and how it may resemble rotenone were investigated in more detail. It was established that flexible linkage was preferred for mitochondrial activity and bulky adducts to the lower benzene ring may block it (FIG. 7C). […] These lead compounds were synthesized from commercial precursors and purified on silica gel column. Structures were confirmed by ^1H NMR and found to be >95% pure by HPLC.

PDE10A = molecular target: T1, PDE10A (Homo sapiens, UniProt Q9Y233); experiment: PDE10A enzymatic assay (PDE10A activity assay kit, BPS Bioscience); assay type: biochemical; conditions: for Inhibitory activity PDE10A % of PPV: PDE10A inhibition at 1 μM, normalized to PPV
T1 construct: purchased BPS Bioscience
T1 sequence (Q9Y233 267-1055): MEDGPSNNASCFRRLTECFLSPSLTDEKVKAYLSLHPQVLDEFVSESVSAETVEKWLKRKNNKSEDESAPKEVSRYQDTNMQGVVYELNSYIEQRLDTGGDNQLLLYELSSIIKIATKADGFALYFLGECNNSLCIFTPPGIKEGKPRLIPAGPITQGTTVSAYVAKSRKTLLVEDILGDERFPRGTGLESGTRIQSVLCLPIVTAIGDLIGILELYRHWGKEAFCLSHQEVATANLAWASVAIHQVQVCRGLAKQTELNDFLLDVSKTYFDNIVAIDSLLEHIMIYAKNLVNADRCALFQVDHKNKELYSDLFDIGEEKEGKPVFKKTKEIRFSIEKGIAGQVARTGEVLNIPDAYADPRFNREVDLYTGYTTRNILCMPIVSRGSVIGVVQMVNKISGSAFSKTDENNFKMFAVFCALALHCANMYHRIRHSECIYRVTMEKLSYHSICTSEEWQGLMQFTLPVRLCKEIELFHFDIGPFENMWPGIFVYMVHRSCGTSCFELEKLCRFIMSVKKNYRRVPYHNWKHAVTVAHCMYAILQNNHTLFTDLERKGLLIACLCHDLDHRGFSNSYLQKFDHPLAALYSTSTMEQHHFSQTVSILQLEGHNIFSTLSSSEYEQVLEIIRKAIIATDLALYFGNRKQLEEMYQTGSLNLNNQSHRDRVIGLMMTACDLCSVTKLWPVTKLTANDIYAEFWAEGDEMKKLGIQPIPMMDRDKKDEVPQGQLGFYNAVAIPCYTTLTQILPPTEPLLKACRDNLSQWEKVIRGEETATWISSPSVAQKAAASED
Description: FIGS. 7A-7D show OCR and cellular toxicity data. […] Bars represent mean OCR and PDE10 inhibitory activities from at least 5 (OCR) or 3 (PDE) replicates. All experiments were repeated at least twice. […] Values are mean+−SEM. […]
The structure activity relationship of PPV relative to two assays was assessed: inhibition of cellular OCR by Seahorse, and inhibition of PDE10A by purified enzyme activity in multiwell plate (PDE10A activity assay kit, BPS Bioscience). […] These lead compounds were synthesized from commercial precursors and purified on silica gel column.

A549 cells = experiment: Seahorse OCR in A549 cells (dose response, IC50, washout); assay type: cell-based, Human; conditions: 1 μM rotenone, media replaced
[1] = test system: A549 NDUFV1 KO NDI1 cells; assay type: cell-based, Human; conditions: 10 μM papaverine or 1 μM rotenone
[2] = test system: oxygen consumption (mitochondrial function); experiment: Seahorse XF analysis of oxygen consumption in vitro, cell line not stated; assay type: cell-based
Description: as §1

Inhibitory activity PDE10A % of PPV (PDE10A) | Structure (SMILES) | Inhibitory activity OCR % of PPV (mitochondrial complex 1) | other results
69.55 % of PPV | COc1ccc(-c2nccc3cc(OC)c(OC)cc23)cc1OC | 3.64 % of PPV | 
67.90 % of PPV | COc1cc2ccnc(C(O)c3ccc4c(c3)OCO4)c2cc1OC (centres unmarked) | 12.96 % of PPV | 
65.88 % of PPV | COc1ccc(C(=O)c2nccc3cc(OC)c(OC)cc23)cc1 | 29.55 % of PPV | 
29.18 % of PPV | COc1cc2ccnc(C(O)c3cc(C)c(OC)c(C)c3)c2cc1OC (centres unmarked) | 10.35 % of PPV | 
0 % of PPV | COc1cc2ccnc(C(O)c3cc(C)cc(C)c3)c2cc1OC (centres unmarked) | 23.40 % of PPV | 
69.54 % of PPV | COc1cc2ccnc(Cc3ccc4c(c3)OCO4)c2cc1OC | 11.11 % of PPV | 
37.37 % of PPV | COc1cc2ccnc(Cc3cc(OC)c(OC)c(OC)c3)c2cc1OC | 34.09 % of PPV | 
64.65 % of PPV | COc1cc2ccnc(Cc3cc(C)c(OC)c(C)c3)c2cc1OC | 91.18 % of PPV | 
85.02 % of PPV | COc1cc2ccnc(Cc3cc(C)c(O)c(C)c3)c2cc1OC | 5.86 % of PPV | 
30.52 % of PPV | COc1cc2ccnc(C(=O)c3cc(C)cc(C)c3)c2cc1OC | 9.26 % of PPV | 
79.93 % of PPV | COc1ccc(Cc2nccc3cc(OC)c(OC)cc23)cc1 | 36.36 % of PPV | 
51.12 % of PPV | COc1cc2ccnc(C(=O)c3ccc4c(c3)OCO4)c2cc1OC | 5.55 % of PPV | 
26.28 % of PPV | COc1cc2ccnc(C(=O)c3ccccc3)c2cc1OC | 0 % of PPV | 
17.18 % of PPV | COc1ccc(OCc2nccc3cc(OC)c(OC)cc23)cc1OC | 72.05 % of PPV | 
72.86 % of PPV | COc1cc2ccnc(C(O)c3cc(OC)c(OC)c(OC)c3)c2cc1OC (centres unmarked) | 34.09 % of PPV | 
23.60 % of PPV | COc1cc2ccnc(C(O)c3ccccc3)c2cc1OC (centres unmarked) | 12.07 % of PPV | 
35.44 % of PPV | COc1ccc(C(O)c2nccc3cc(OC)c(OC)cc23)cc1 (centres unmarked) | 70.45 % of PPV | 
20.16 % of PPV | COc1ccc(CCc2nccc3cc(OC)c(OC)cc23)cc1OC | 5.94 % of PPV | 
63.39 % of PPV | COc1cc2ccnc(C(=O)c3cc(OC)c(OC)c(OC)c3)c2cc1OC | 13.63 % of PPV | 
50.92 % of PPV | COc1cc2ccnc(C(=O)c3cc(C)c(OC)c(C)c3)c2cc1OC | 0 % of PPV | 

The remaining lines, values behind:

Structure (SMILES) | Inhibitory activity PDE10A % of PPV (PDE10A) | Inhibitory activity OCR % of PPV (mitochondrial complex 1) | other results
COc1cc2c(cc1OC)C(Cc1cc(C)c(OC)c(C)c1)=NCC2 | 37.27 % of PPV | 14.81 % of PPV | 
COc1cc2ccnc(C(=O)c3ccc(C)c(C)c3)c2cc1OC |  | 9.64 % of PPV | 
C=C(C)COc1c(C)cc(Cc2nccc3cc(OC)c(OC)cc23)cc1C | 59.69 % of PPV | 74.81 % of PPV | 
COc1cc2c(cc1OC)C(Cc1ccc3c(c1)OCO3)=NCC2 | 12.77 % of PPV | 5.55 % of PPV | 
COc1cc2ccnc(Cc3ccc4ccccc4c3)c2cc1OC | 100 % of PPV | 35.99 % of PPV | 
C=C(C)COc1c(C)cc(C(=O)c2nccc3cc(OC)c(OC)cc23)cc1C | 74.38 % of PPV | 15.51 % of PPV | 
C=C(C)[C@H]1Cc2c(ccc3c2O[C@@H]2COc4cc(OC)c(OC)cc4[C@@H]2C3=O)O1 [rotenone] | 0 % of PPV | 193 % of PPV | reversibility of OCR inhibition in washout (A549 cells): no restoration in 3 hours; also recorded: irreversible inhibitor; response of mitochondria (OCR) to drug [1]: resistant
COc1cc2ccnc(C(=O)c3cc(C(F)(F)F)cc(C(F)(F)F)c3)c2cc1OC | 17.69 % of PPV | 0 % of PPV | 
C=C(C)COc1c(C)cc(C(O)c2nccc3cc(OC)c(OC)cc23)cc1C (centres unmarked) | 73.33 % of PPV | 84.42 % of PPV | 
[H]/N=C(/N)N/C(=N/[H])NCCc1ccccc1 [phenformin] |  |  | inhibition of oxygen consumption / mitochondrial function in vitro [2]: effective at inhibiting oxygen consumption
COc1cc2c(cc1OC)C(Cc1cc(C)cc(C)c1)=NCC2 | 40.00 % of PPV | 30.09 % of PPV | 
COc1cc2ccnc(COc3cccc4ccccc34)c2cc1OC |  | 14.19 % of PPV | 
COc1cc2ccnc(C(=O)c3ccc4ccccc4c3)c2cc1OC | 0 % of PPV | 4.34 % of PPV | 
CN(C)C(=N)N=C(N)N [Metformin] |  |  | inhibition of oxygen consumption / mitochondrial function in vitro [2]: effective at inhibiting oxygen consumption
COc1ccccc1OCC(O)CN1CCN(CC(=O)Nc2c(C)cccc2C)CC1 (centres unmarked) [ranolazine] |  |  | inhibition of oxygen consumption / mitochondrial function in vitro [2]: effective at inhibiting oxygen consumption
COc1cc2ccnc(C(O)c3cc(C(F)(F)F)cc(C(F)(F)F)c3)c2cc1OC (centres unmarked) | 16.58 % of PPV | 48.27 % of PPV | 
COc1cc2ccnc(C(=O)c3cccc4ccccc34)c2cc1OC | 0 % of PPV | 31.91 % of PPV | 
COc1cc2ccnc(C(O)c3ccc4ccccc4c3)c2cc1OC (centres unmarked) | 70.84 % of PPV | 29.26 % of PPV | 
COc1cc2ccnc(C(O)c3ccc(C)c(C)c3)c2cc1OC (centres unmarked) |  | 22.69 % of PPV | 
COc1cc2ccncc2cc1OC [DMIQ, reference compound] | 0 % of PPV | 0 % of PPV | activity in cellular OCR assay (mitochondrial complex 1): inactive; activity in PDE10A assay (PDE10A; purified enzyme): inactive
COc1cc2ccnc(Cc3cc(C(F)(F)F)cc(C(F)(F)F)c3)c2cc1OC | 10.28 % of PPV | 33.4 % of PPV | 
Cc1cccc(CN2CCN(C(c3ccccc3)c3ccc(Cl)cc3)CC2)c1 (centres unmarked) [meclizine] |  |  | inhibition of oxygen consumption / mitochondrial function in vitro [2]: effective at inhibiting oxygen consumption
COc1cc2ccnc(Cc3cc(C)c(OCC(C)C)c(C)c3)c2cc1OC | 29.13 % of PPV | 72.88 % of PPV | 
COc1cc2ccnc(Cc3ccc(C)c(C)c3)c2cc1OC |  | 17.43 % of PPV | 
COc1cc2ccnc(C(O)c3cccc4ccccc34)c2cc1OC (centres unmarked) | 24.24 % of PPV | 18 % of PPV | 
